# Results reported in paper PMC4354731 (Biochimica et biophysica acta, 2013).
# Assays:
# [1] = biological target: fumarate reductase (FrdABCD), FrdB subunit (Escherichia coli, UniProt P0A8Q0+P0A8Q3+P0AC47); test: fluorescence quench titration in enriched membranes; assay type: binding
# [2] = biological target: fumarate reductase (FrdABCD), FrdB subunit (Escherichia coli, UniProt P0A8Q0+P0A8Q3+P0AC47, P0AC47:K229L); test: biochemical
# [3] = biological target: fumarate reductase (FrdABCD), FrdB subunit (Escherichia coli, UniProt P0A8Q0+P0A8Q3+P0AC47, P0AC47:K229R); test: biochemical
# [4] = biological target: fumarate reductase (FrdABCD), FrdB subunit (Escherichia coli, UniProt P0A8Q0+P0A8Q3+P0AC47, P0AC47:K229E); test: biochemical
# [5] = biological target: fumarate reductase (FrdABCD), FrdB subunit (Escherichia coli, UniProt P0A8Q0+P0A8Q3+P0AC47, P0AC47:S204R); test: biochemical
smiles,measurement,setting,value
"CCCCCCCc1cc(O)c2ccccc2[n+]1[O-] [HOQNO, 2-n-heptyl-4-hyroxyquinoline-N-oxide]",Kd,[1],5 nM
same,Kd,[2],110 nM
same,Kd,[3],80 nM
same,Kd,[4],110 nM
same,Kd,[5],5 nM
